The text below walks through data of patent US6908912B2, “Pyrithione biocides enhanced by zinc metal ions and organic amines” (priority 1999, dated 2005).

Several values for one entry are separate records, joined by “and”; a condition that tells them apart may be missing. Equal values may be shown once. Read-outs that look alike come from different tables or passages of the source.

In series [1] the test system is Fusarium sp. and Cephalosporium sp. metalworking fluid field isolates. As to the kind of experiment: Efficacy against fungi in diluted (1:20) metalworking fluids, flask test (Examples 1-40). The class given is cell-based.
Series [2] is described as follows: Solubility and stability of concentrated mixtures of sodium pyrithione, ZnCl2 and organic amines (Example 55). The settings on record: for solubility and stability of mixture after 24 and 72 hours: mixtures of sodium pyrithione, ZnCl2 and the named amine.
Series [3] concerns Fusarium sp and Cephalosporium sp. The series can be described thus: Culture tube test with formaldehyde releasing biocide, viable fungal counts (Example 52). The series is classed as cell-based, fungi.
Series [4] shares this test system. As to the kind of experiment: Prevention of fungal contamination of metalworking fluid, repeated challenge (Example 53). The series is classed as cell-based, fungi.
For series [5], the system named is Klebsiella pnenmoniae bacteria. Conditions: cited from earlier work.
In series [6] the test system is Pseudomonas aeruginosa, Escherichia coli, Pseudomonas fluorescens, Pseudomonas rubescens, and Pseudomonas putida. The series is classed as cell-based, bacteria.
The test system of series [7] is Pseudomonas aeruginosa 9027, Escherichia coli 8739, Pseudomonas fluorescens 12201, Pseudomonas rubescens 12202, and Pseudomonas putida. The class given is cell-based, bacteria.
Series [8] in a line: Blue discoloration of metalworking fluids in the presence of iron ions, visual inspection (Example 54). The class given is physicochemical.
Where [9] appears, read: Semi-Synthetic Fluid diluted 1:20, final 100 PPM NaPT, 21 PPM ZnCl2, 600 PPM amine or 1000 PPM Mixture as applicable.
[10] abbreviates: Soluble Oil diluted 1:20, final 100 PPM NaPT, 21 PPM ZnCl2, 600 PPM amine or 1000 PPM Mixture as applicable.
Where [11] appears, read: Synthetic Fluid diluted 1:20, final 100 PPM NaPT, 21 PPM ZnCl2, 600 PPM amine or 1000 PPM Mixture as applicable.
[12] abbreviates: Semi-synthetic MWF, Triazine 196 PPM ai TZ.
Where [13] appears, read: Semi-synthetic MWF, Triazine 393 PPM ai TZ.
[14] abbreviates: Semi-synthetic MWF, Triazine 785 PPM ai TZ.

As for 1-amino-2-propanol [Mixture 1A2P], the “Fungi/ml Day 1” value was 4.7 × 10^4 Fungi/ml in series [1] (setting [9]), 4.6 × 10^4 Fungi/ml in series [1] (setting [10]) and 5.5 × 10^4 Fungi/ml in series [1] (setting [11]). Besides, the “Fungi/ml Day 4” value in series [1] (setting [9]) is 5.0 × 10^4 Fungi/ml; in series [1] (setting [10]) it was 2.5 × 10^4 Fungi/ml; in series [1] (setting [11]), 3.6 × 10^4 Fungi/ml.

Turning to `NCCCN` [1,3-Diaminopropane], in series [2], the “Appearance at 24 Hrs” value was “S” and the “Appearance at 72 Hrs” value is on record as “S”.

With `NCCOCCO` [2(2-Aminoethoxy)ethanol], the “solubility and stability of mixture after 24 and 72 hours” value (“solubility and stability of mixture” below) in series [2] (room temperature) is recorded as “precipitates”.

Turning to `CCC(N)(CO)CO` [2-Amino-2-ethyl-1,3-propanediol], in series [2] (room temperature), the “solubility and stability of mixture” value is “precipitates”.

For `COCCCN` [3-methoxypropylamine], in series [2] (room temperature), the “solubility and stability of mixture” value is “soluble mixtures after 24 hours but not after 72 hours”.

For the molecule `NCCNCCN` [Diethylenetriamine], in series [2], the “Appearance at 24 Hrs” value is on record as “S” and the “Appearance at 72 Hrs” value was “S”.

As for `CC(O)CNCC(C)O` (stereo not drawn) [Diisopropanolamine], the “solubility and stability of mixture” value in series [2] (room temperature) was “precipitates”.

On to `NCCO` [MEA, monoethanolamine], for which the figures for the “Fungi/ml Day 1” value in series [1] (setting [9]), in series [1] (setting [10]) and in series [1] (setting [11]) were 4.3 × 10^4 Fungi/ml, 2.9 × 10^4 Fungi/ml and 4.7 × 10^4 Fungi/ml, respectively. Besides, the figures for the “Fungi/ml Day 4” value in series [1] (setting [9]), in series [1] (setting [10]) and in series [1] (setting [11]) were 7.0 × 10^4 Fungi/ml, 1.0 × 10^4 Fungi/ml and 3.6 × 10^4 Fungi/ml, respectively.

In the case of `CCCNCCO` [Propylethanolamine], the “Appearance at 24 Hrs” value in series [2] (mixture of NaPT 10.00, ZnCl2 1.74, organic amine(s) 60.50, water 27.76 weight %, room temperature) was “S”.

For the molecule `OCCN1CN(CCO)CN(CCO)C1` [Triazine, hexahydro-1,3,5-tris(2-hydroxyethyl)-s-triazine], the “Fungi/ml Day 3” value in series [3] (Soluble oil MWF, Triazine 49 PPM ai TZ) is given as 3.0 × 10^3 Fungi/ml; in series [3] (Soluble oil MWF, Triazine 98 PPM ai TZ) it was 1.1 × 10^3 Fungi/ml; in series [3] (Soluble oil MWF, Triazine 196 PPM ai TZ), 100 Fungi/ml; in series [3] (Soluble oil MWF, Triazine 393 PPM ai TZ), 0 Fungi/ml; in series [3] (Soluble oil MWF, Triazine 589 PPM ai TZ) it was 0 Fungi/ml; in series [3] (Soluble oil MWF, Triazine 785 PPM ai TZ) it was 0 Fungi/ml. The “Fungi/ml Week 4” value in series [4] (setting [12]) is 3.6 × 10^4 Fungi/ml; in series [4] (setting [13]), 0 Fungi/ml; in series [4] (setting [14]) it was 0 Fungi/ml. In addition, the “Fungi/ml Week 9” value in series [4] (setting [12]) is recorded as 6.2 × 10^4 Fungi/ml; in series [4] (setting [13]), 70 Fungi/ml; in series [4] (setting [14]), 0 Fungi/ml.

With `On1ccccc1=S` [pyrithione, 1-hydroxy-2-pyridinethione], the “activity against Klebsiella pnenmoniae bacteria” value in series [5] is reported as “favorable enhancement”.

As for sodium pyrithione [NaPT], in series [6], the “Bacteria/ml Week 4” value is 3.2 × 10^6 Bacteria/ml and the “Bacteria/ml Week 9” value is 6.1 × 10^6 Bacteria/ml. Besides, in series [7], the “Bacteria/ml Day 1” value is 4.0 × 10^5 Bacteria/ml and 5.2 × 10^6 Bacteria/ml and 4.3 × 10^6 Bacteria/ml; the “Bacteria/ml Day 4” value is 3.0 × 10^5 Bacteria/ml and 3.7 × 10^7 Bacteria/ml and 6.0 × 10^6 Bacteria/ml. Further, the “Initial Blue Color” value in series [8] was “light and dark and blue”. For the same molecule, in series [3], the “Fungi/ml Day 3” value is 7.7 × 10^4 Fungi/ml and 4.1 × 10^4 Fungi/ml. Also, in series [4], the “Fungi/ml Week 4” value is reported as 8.9 × 10^4 Fungi/ml and the “Fungi/ml Week 9” value is 5.6 × 10^4 Fungi/ml. Moreover, in series [1], the “Fungi/ml Day 1” value was 5.1 × 10^4 Fungi/ml and 7.0 × 10^4 Fungi/ml and 5.7 × 10^4 Fungi/ml.

Take zinc chloride [ZnCl2]: in series [1], the “Fungi/ml Day 1” value was 7.7 × 10^4 Fungi/ml and 5.9 × 10^4 Fungi/ml and 5.2 × 10^4 Fungi/ml; the “Fungi/ml Day 4” value was 4.3 × 10^4 Fungi/ml and 3.2 × 10^4 Fungi/ml and 3.1 × 10^4 Fungi/ml.
